Measured values reported in US8399466B2, “Composition for regenerative treatment of cartilage disease” (Mitsubishi Tanabe Pharma Corporation, priority 2001, dated 2013).

Columns and labels:
[1] = test system: articular chondrocytes; test: Increase of matrix production of articular chondrocytes (Alcian blue staining of proteoglycan); format: cell-based, rabbit; settings: for Proteoglycan Production (%): cultivation until day 5, vehicle = 100
Experimental: Four NZW line rabbits (Kitayama Labes., Co Ltd.; male; 4-week-old) were sacrificed with bleeding under ether anesthesia and femur knee joints were collected aseptically. The collected knee joints were stored in phosphate buffer (pH 7.2) containing 0.2% glucose and only the cortical layer of knee joint was scrapped with a surgical knife into a 50 ml tube containing phosphate buffer (pH 7.2) containing 0.2% glucose. The collected knee joint cortical layer was cut into as small sections as possible on a dish with a razor and shaken at 37° C. for 15 minutes in phosphate buffer containing 0.2% glucose, supplied with 10× trypsin-ethylenediamine tetraacetic acid (EDTA)·4 Na salt (GIBCO; Cat. No. 15400-054) (50 ml, with 100 mg of trypsin and 40 mg of EDTA·4Na; pH 7.2). After shaking, the sample was centrifuged (1,400 rpm) to collect precipitates, and the precipitates were washed twice with 40 ml of phosphate buffer containing 0.2% glucose. The washed precipitates were combined with 40 ml of serum-free α-minimum essential medium (MEM: GIBCO; Cat: No. 12571-063) containing 60 mg of collagenase for cell diffusion (Wako Pure Chemical Industries, Ltd., 034-10533) and transferred to a 100 ml beaker containing a sterilized stirrer bar. Under stirring with the stirrer bar, the collagenase digestion was carried on for about 1 hour in a CO2 incubator at 37° C. Cartilage fragments were removed from the collagenase-treated cells using a […] Cell Strainer ([FALCON; Cat. No. 2340]). To the residual treated cells was added 10 ml of α-MEM medium containing 10% fetal calf serum (FCS), and centrifuged (1,400 rpm). The precipitates were washed with 10% FCS-αMEM medium twice, suspended in appropriate volume of the same medium and the resultant suspension was seeded into collagen type II (Wako Pure Chemical Industries, Ltd., 033-13901)-coated plates (48 well) at 20,000 cells/well. On the next day, the medium was replaced with 10% FCS-αMEM medium.
When cells reached to confluent after the medium exchange procedure above, the medium for test group was replaced with test compound-containing medium (including 0.1% dimethylsulfoxide as a vehicle). As a medium to which a test compound is added, 10% FCS-αMEM medium containing 0.2 mM ascorbic acid was used. The day on which test compound-containing medium was added for the first time was defined as “day 1”. The medium exchange with the same medium was again conducted at day 3 and the cultivation continued until day 5. As to the control group, the medium was exchanged at the same time using the same medium as the test group except that it is free of test compound (containing vehicle only), and the cultivation was carried out in the same manner. After completion of cultivation, the supernatant was removed from the culture medium. Cells were fixed by addition of 0.25 ml of neutral buffer containing 4% paraformaldehyde and incubation for 2 hours. Cells were washed three times with 1 ml of phosphate buffer (pH 7.2) and then stained for 4 hours with 0.1% Alcian blue 8GX (Sigma; A3157) dissolved in 0.1 M hydrochloric acid, which Alcian blue selectively stains cartilage matrix proteoglycan. After staining, the cells were washed 3 times with 1 ml of phosphate buffer (pH 7.2). Alcian blue which had stained cartilage matrix was dissolved with 0.25 ml of aqueous 6 M guanidine hydrochloride solution and a portion of the solution was used to determine the absorbance at 620 nm. The amounts of Alcian blue used for staining was calculated from the absorbance, which in turn was used for the estimation of the amount of matrix (proteoglycan).

[2] = test system: cAMP-hydrolyzing PDE expressed in articular cartilage (PDE4-related peaks); test: cAMP hydrolyzing activity (PDE activity) of Mono Q fractions of articular cartilage extract, radio-labeled nucleic acid assay; format: biochemical, rabbit; settings: final concentration 1×10^−5 M; FIG. 1
Experimental: Four NZW line rabbits (Kitayama Labes., Co Ltd.; male; 4-week-old) were sacrificed with bleeding under ether anesthesia and femur knee joints were collected aseptically. The collected knee joints were stored in phosphate buffer (pH 7.2) containing 0.2% glucose and only the cortical layer of knee joint portion was scrapped with a knife into a 50 ml tube containing phosphate buffer (pH 7.2) containing 0.2% glucose. The collected knee joint cortical layer was cut into as small sections as possible on a dish with a razor, washed with ice-cold phosphate buffer and homogenized with a homogenizer (Polytron: Kinematica A.G.) in homogenization buffer (20 mM Tris-HCl, pH 7.4, 2 mM magnesium acetate, 0.3 mM calcium chloride, 1 mM dithiothreitol, 40 μM leupeptin, 1.3 mM benzamidine, 0.2 mM phenylmethylsulfonyl fluoride and 1 mM sodium azide). The resultant homogenate was centrifuged (100,000×g, 60 minutes) to separate supernatant.
The supernatant was subjected to Mono Q Sepharose High Performance column (Amersham Pharmacia Biotech) previously equilibrated with an elution buffer (20 mM Tris-HCl, pH 7.4, 1 mM calcium chloride, 1 mM dithiothreitol, 2 μM leupeptin, 5 mM benzamidine). […]
The determination of PDE activity was performed by a radio-labeled nucleic acid assay. […] To each eluate was added a liquid scintillation cocktail and the radio activity was measured.

## COc1ccc(C2CNC(=O)C2)cc1OC1CCCC1 (stereo not shown) [Compound (44)]
[1]; 1 × 10^−4 M
  Proteoglycan Production (%): 116%
[1]; 1 × 10^−5 M
  Proteoglycan Production (%): 125%
[1]; summary of Table 1
  matrix production promoting activity: exert matrix production promoting activity
[2]
  inhibition of cAMP hydrolyzing activity of the four peaks: strongly inhibited
